Results published in the NIST ThermoML archive (doi:10.1021/acs.jced.7b00106).
Several values for one entry are separate records, joined by “and”; a condition that tells them apart may be missing. Equal values may be shown once. Numbers after ± are expanded uncertainties.

Conditions: Fluid (supercritical or subcritical phases), Hot wire method

## FC(F)(F)/C=C/Cl [(E)-1-chloro-3,3,3-trifluoroprop-1-ene]
451.44 K, 4091 kPa
  thermal conductivity: 0.03884 W/m/K
451.45 K, 3691 kPa
  thermal conductivity: 0.03 ± 0.014 W/m/K
451.45 K, 4479 kPa
  thermal conductivity: 0.04701 ± 0.011 W/m/K and 0.04717 ± 0.0036 W/m/K
451.46 K, 3650 kPa
  thermal conductivity: 0.02974 W/m/K
451.47 K, 3830 kPa
  thermal conductivity: 0.03201 ± 0.014 W/m/K
451.47 K, 4579 kPa
  thermal conductivity: 0.04622 W/m/K
451.47 K, 4580 kPa
  thermal conductivity: 0.04624 W/m/K
451.48 K, 3651 kPa
  thermal conductivity: 0.02988 ± 0.011 W/m/K
451.48 K, 3831 kPa
  thermal conductivity: 0.03192 ± 0.014 W/m/K
451.5 K, 3272 kPa
  thermal conductivity: 0.02692 ± 0.003 W/m/K
451.5 K, 3273 kPa
  thermal conductivity: 0.02709 ± 0.0011 W/m/K
451.5 K, 4908 kPa
  thermal conductivity: 0.04557 ± 0.013 W/m/K and 0.04553 ± 0.014 W/m/K
451.51 K, 3508 kPa
  thermal conductivity: 0.02853 ± 0.0059 W/m/K
451.51 K, 4024 kPa
  thermal conductivity: 0.03641 W/m/K
451.51 K, 4025 kPa
  thermal conductivity: 0.03631 W/m/K
451.52 K, 4479 kPa
  thermal conductivity: 0.04791 W/m/K
451.52 K, 5208 kPa
  thermal conductivity: 0.04584 ± 0.013 W/m/K and 0.04601 ± 0.0073 W/m/K
451.53 K, 4479 kPa
  thermal conductivity: 0.04799 ± 0.024 W/m/K
451.54 K, 3691 kPa
  thermal conductivity: 0.03 ± 0.007 W/m/K and 0.03016 ± 0.0067 W/m/K
451.54 K, 4580 kPa
  thermal conductivity: 0.04656 W/m/K
451.55 K, 4580 kPa
  thermal conductivity: 0.04665 W/m/K
451.56 K, 3650 kPa
  thermal conductivity: 0.02992 ± 0.014 W/m/K
451.57 K, 3650 kPa
  thermal conductivity: 0.02995 ± 0.013 W/m/K
451.57 K, 3831 kPa
  thermal conductivity: 0.0321 W/m/K
451.58 K, 3831 kPa
  thermal conductivity: 0.0323 W/m/K
451.59 K, 4908 kPa
  thermal conductivity: 0.04582 ± 0.0093 W/m/K and 0.04575 ± 0.011 W/m/K
451.6 K, 5208 kPa
  thermal conductivity: 0.04598 ± 0.007 W/m/K and 0.04588 ± 0.0096 W/m/K
451.61 K, 3273 kPa
  thermal conductivity: 0.02708 ± 0.0027 W/m/K
451.61 K, 4734 kPa
  thermal conductivity: 0.046 W/m/K
451.62 K, 3273 kPa
  thermal conductivity: 0.027 ± 0.0029 W/m/K
451.62 K, 3508 kPa
  thermal conductivity: 0.02859 ± 0.011 W/m/K
451.62 K, 3509 kPa
  thermal conductivity: 0.02863 ± 0.0068 W/m/K
451.62 K, 4579 kPa
  thermal conductivity: 0.04727 W/m/K
451.62 K, 4580 kPa
  thermal conductivity: 0.0472 W/m/K
451.62 K, 4734 kPa
  thermal conductivity: 0.0461 W/m/K
451.64 K, 3691 kPa
  thermal conductivity: 0.03032 ± 0.012 W/m/K and 0.03035 ± 0.012 W/m/K
451.66 K, 2992 kPa
  thermal conductivity: 0.02577 ± 0.0016 W/m/K
451.67 K, 2990 kPa
  thermal conductivity: 0.02601 ± 0.0012 W/m/K
451.67 K, 3650 kPa
  thermal conductivity: 0.02999 ± 0.012 W/m/K
451.67 K, 4909 kPa
  thermal conductivity: 0.04592 W/m/K
451.68 K, 4909 kPa
  thermal conductivity: 0.04602 W/m/K
451.68 K, 5207 kPa
  thermal conductivity: 0.04609 ± 0.01 W/m/K
451.69 K, 5207 kPa
  thermal conductivity: 0.04582 ± 0.011 W/m/K
451.7 K, 4580 kPa
  thermal conductivity: 0.04772 ± 0.02 W/m/K
451.7 K, 4734 kPa
  thermal conductivity: 0.04631 W/m/K
451.71 K, 4580 kPa
  thermal conductivity: 0.04774 ± 0.02 W/m/K
451.71 K, 4734 kPa
  thermal conductivity: 0.04636 W/m/K
451.72 K, 3272 kPa
  thermal conductivity: 0.02716 ± 0.0037 W/m/K
451.73 K, 2617 kPa
  thermal conductivity: 0.02492 ± 0.0051 W/m/K and 0.02475 ± 0.0052 W/m/K
451.73 K, 3273 kPa
  thermal conductivity: 0.02707 ± 0.004 W/m/K
451.74 K, 3509 kPa
  thermal conductivity: 0.02878 ± 0.011 W/m/K and 0.02877 ± 0.011 W/m/K
451.76 K, 4908 kPa
  thermal conductivity: 0.04609 W/m/K
451.76 K, 4909 kPa
  thermal conductivity: 0.04628 W/m/K
451.77 K, 3650 kPa
  thermal conductivity: 0.0303 ± 0.0098 W/m/K
451.77 K, 5207 kPa
  thermal conductivity: 0.0462 ± 0.013 W/m/K
451.77 K, 5208 kPa
  thermal conductivity: 0.04621 ± 0.013 W/m/K
451.78 K, 2992 kPa
  thermal conductivity: 0.02586 ± 0.0012 W/m/K
451.78 K, 3650 kPa
  thermal conductivity: 0.03036 ± 0.011 W/m/K
451.79 K, 2166 kPa
  thermal conductivity: 0.02402 ± 0.0026 W/m/K
451.79 K, 2992 kPa
  thermal conductivity: 0.02587 ± 0.0025 W/m/K
451.8 K, 2167 kPa
  thermal conductivity: 0.02395 ± 0.0041 W/m/K
451.8 K, 4735 kPa
  thermal conductivity: 0.0468 W/m/K
451.85 K, 3273 kPa
  thermal conductivity: 0.02717 ± 0.0049 W/m/K and 0.02719 ± 0.0049 W/m/K
451.85 K, 3509 kPa
  thermal conductivity: 0.02883 ± 0.014 W/m/K
451.86 K, 1669 kPa
  thermal conductivity: 0.0235 ± 0.0018 W/m/K
451.86 K, 1672 kPa
  thermal conductivity: 0.02345 ± 0.0013 W/m/K
451.87 K, 2617 kPa
  thermal conductivity: 0.02483 ± 0.0014 W/m/K
451.87 K, 2618 kPa
  thermal conductivity: 0.02473 ± 0.0015 W/m/K
451.89 K, 4734 kPa
  thermal conductivity: 0.0473 W/m/K
451.89 K, 4735 kPa
  thermal conductivity: 0.04729 W/m/K
451.91 K, 2992 kPa
  thermal conductivity: 0.02598 ± 0.0039 W/m/K
451.92 K, 2991 kPa
  thermal conductivity: 0.02605 ± 0.005 W/m/K
451.93 K, 5207 kPa
  thermal conductivity: 0.04646 ± 0.017 W/m/K
